Structures can show the parent of a compound that is named as a salt. Where two headings read alike, the source gives them in different places.
Experiments:
Type in all cases: cell-based
[1] = tested on: Bacillus anthracis, Sterne 34F2; assay: microbe, parasite or virus in culture; conditions: STERNE34F2, read-out: MIC B.a.
[2] = tested on: Bacillus subtilis (ATCC 23857); assay: MIC determination, microbroth dilution; conditions: ATCC23857; Bacillus subtilis (ATCC 23857); read-out: MIC B.s.
[3] = tested on: Enterococcus faecalis (ATCC 33186); assay: MIC determination, microbroth dilution; conditions: ATCC33186; Enterococcus faecalis (ATCC 33186); read-out: MIC E.f.
[4] = tested on: Staphylococcus aureus (ATCC 29213); assay: MIC determination, microbroth dilution; conditions: ATCC29213; Staphylococcus aureus (ATCC 29213); read-out: MIC S.a.
[5] = tested on: MRSA, Staphylococcus aureus (NRS70); assay: MIC determination, microbroth dilution; conditions: Staphylococcus aureus (NRS70); read-out: MIC MRSA
[6] = tested on: Streptococcus pneumoniae (R6); assay: MIC determination, microbroth dilution; conditions: read-out: MIC S. pn.
[7] = tested on: Streptococcus pyogenes (ATCC 700294); assay: MIC determination, microbroth dilution
[8] = tested on: acinetobacter baumannii (ATCC 19606); assay: MIC determination, microbroth dilution; conditions: ATCC19606
[9] = tested on: Burkholderia cepacia (ATCC 25416); assay: MIC determination, microbroth dilution; conditions: Burkholderia cepacia
[10] = tested on: Escherichia coli (ATCC 700926); assay: MIC determination, microbroth dilution; conditions: ATCC700926; Escherichia coli (ATCC 700926); read-out: MIC E.c.
E. coli K12 ΔtolC = assay: microbe, parasite or virus in culture; conditions: Escherichia coli, read-out: MIC E.c. Δtolc
[11] = tested on: Klebsiella pneumoniae (ATCC 33495); assay: MIC determination, microbroth dilution; conditions: ATCC33495
[12] = tested on: Pseudomonas aeruginosa (PA01); assay: MIC determination, microbroth dilution
[13] = tested on: Proteus mirabilis (ATCC 25933); assay: MIC determination, microbroth dilution; conditions: ATCC25933
[14] = tested on: Proteus vulgaris (ATCC 33420); assay: MIC determination, microbroth dilution; conditions: ATCC33420
[15] = tested on: Stenotrophomonas maltophilia (ATCC 13637); assay: MIC determination, microbroth dilution; conditions: Stenotrophomonas maltophilia, ATCC13637, read-out: MIC S.m.
[16] = tested on: Haemophilus influenza (ATCC 49247); assay: microbe, parasite or virus in culture; conditions: ATCC49247; Haemophilus influenza; 4 μg per disc; range of at least two experiments; read-out: Zone of inhibition H.i.
[17] = tested on: Neisseria meningitides (ATCC 13077); assay: Disc diffusion assay; conditions: ATCC13077, 4 μg per disc, read-out: Zone of inhibition N.m.
[18] = tested on: Neisseria gonorrhoeae (ATCC 49226); assay: Disc diffusion assay; conditions: ATCC49226, 4 μg per disc, read-out: Zone of inhibition N.g.
[19] = tested on: Neisseria gonorrhoeae (ATCC 49226); assay: Agar MIC determination (Alamar Blue); conditions: ATCC49226, agar MIC, read-out: MIC N.g.
Bacillus anthracis = assay: microbe, parasite or virus in culture; conditions: read-out: MIC B.a.
Yersinia pestis = assay: microbe, parasite or virus in culture; conditions: read-out: MIC Y.p.
[20] = tested on: live vaccine strain (LVS) of Francisella tularensis; assay: microbe, parasite or virus in culture; conditions: Francisella tularensis, read-out: MIC F.t.
[21] = tested on: M. tuberculosis clinical isolates; assay: microbe, parasite or virus in culture; conditions: Mycobacterium tuberculosis, H37RV, read-out: MIC H37Rv
Listeria monocytogenes = assay: MIC determination (Table 6)
Moraxella catarrhalis = assay: MIC determination (Table 6)
[22] = tested on: Legionella pneumophila (ATCC 33153); assay: microbe, parasite or virus in culture; conditions: ATCC33153, 72 h, read-out: Zone of inhibition L.p.
[23] = ATCC25416, read-out: MIC B.c., Burkholderia cepacia (ATCC 25416)
[24] = ATCC25416, read-out: MIC B.c., Burkholderia cepacia, Table 6

Compound	MIC [1]	MIC [2]	MIC [3]	MIC [4]	MIC [5]	MIC [8]	MIC [9, 23]	MIC [9, 24]	MIC [10]	MIC (E. coli K12 ΔtolC)	MIC [11]	MIC [12]	MIC [13]	MIC [14]	MIC [15]	zone of inhibition at 4 µg/disc [16]	zone of inhibition at 4 µg/disc [17]	zone of inhibition at 4 µg/disc [18]	MIC [19]	MIC (Bacillus anthracis)	other results
CN[C@@H]1[C@H](O)[C@H](NC)[C@H]2O[C@]3(O)[C@H](O[C@@H]2[C@H]1O)O[C@H](C)C[C@@]3(O)CNCc1ccc(F)c(F)c1 [compound 12, 3′-(R)-3′-[(3,4-difluoro)benzylaminomethyl)]dihydrospectinomycin Trihydrochloride]	50 µg/mL	25 to 50 µg/mL	50 µg/mL	100 to 200 µg/mL	200 µg/mL	≥ 200 µg/mL	≥ 200 µg/mL	≥ 200 µg/mL	25 to 50 µg/mL	12.5 to 25 µg/mL	> 200 µg/mL	≥ 200 µg/mL	> 200 µg/mL	> 200 µg/mL	12.5 to 25 µg/mL	16 to 17 mm	17 mm	15 to 17 mm	25 to 50 µg/mL	50 µg/mL	MIC ([6]; Streptococcus pneumoniae (R6)): 6.3 µg/mL; MIC ([7]; ATCC700294, Streptococcus pyogenes (ATCC 700294), read-out: MIC S. py.): 3.1 µg/mL; MIC (Yersinia pestis): 200 µg/mL; MIC [20]: 3.1 to 6.3 µg/mL; MIC [21]: 50 µg/mL; MIC (Listeria monocytogenes): 6.3 to 12.5 µg/mL; MIC (Moraxella catarrhalis): 6.3 to 12.5 µg/mL
CN[C@@H]1[C@H](O)[C@H](NC)[C@H]2O[C@]3(O)[C@H](O[C@@H]2[C@H]1O)O[C@H](C)C[C@@]3(O)CNCc1ccccn1 [compound 16, 3′-(R)-3′-(2-pyridinylmethylaminomethyl)dihydrospectinomycin Tetrahydrobromide]	50 µg/mL	50 µg/mL	100 µg/mL	100 to 200 µg/mL	> 200 µg/mL	> 200 µg/mL	> 200 µg/mL	> 200 µg/mL	100 to 200 µg/mL	50 µg/mL	200 µg/mL	> 200 µg/mL	> 200 µg/mL	> 200 µg/mL	12.5 to 25 µg/mL	7 mm	13 mm	6 mm	≥ 200 µg/mL	50 µg/mL	MIC ([6]; Streptococcus pneumoniae): 12.5 µg/mL; MIC ([7]; Streptococcus pyogenes, ATCC700294, read-out: MIC S. py.): 12.5 to 25 µg/mL; zone of inhibition at 4 µg/disc [22]: 34 mm; MIC (Yersinia pestis): 100 µg/mL; MIC [21]: 12.5 µg/mL; MIC (Listeria monocytogenes): 25 µg/mL; MIC (Moraxella catarrhalis): 12.5 µg/mL

Source: US10266544B2, “Aryl substituted aminomethyl spectinomycin analogs as antibacterial agents” (ST. JUDE CHILDREN'S RESEARCH HOSPITAL, INC., priority 2013, dated 2019)
